# Entries after “also recorded” stand apart in the source; their conditions may differ.
# Assays:
# [1] = tested on: CEA-specific IgG response; experiment: ADA against CEA-IL2v in wild-type mice, ELISA (Example 1, 28 days); type: in vivo, C57BL/6 wild type mice; conditions: 40 mg/kg/day via food admix from one week before first immunization until day 28, vs vehicle
# Description: 15-week-old mice C57BL/6 wild type and C57BL/6-Tg (hIgG1,k,l) were purchased from Taconic (Denmark) and housed at the animal facilities under a 12 hour (h) light 12 h dark cycle with cycles of air ventilation and free access to water and food. 7×10 μg of CEA-112v or 7×10 μg of Humira (Adalimumab, Abbvie Germany GmbH) were injected respectively at day 0, 4, 7, 11, 14, 18 and 21 subcutaneously in the right flank or the left flank alternatively. The dosage of the cathepsin S inhibitor consumption was 40 mg/kg/day. The food admix (Ssniff Spezialdiäten, Germany) was given daily one day before the first immunization until day 28 for the mice immunized with Humira. The food admix was given daily one week before the first immunization until day 28 for the mice immunized with CEA-IL2v (R06895882). At day −12, 7, 14 and 28 blood samples were taken.
# (§1) Nunc Maxisorp flat-bottom 96 well ELISA plates were coated with 100 μl per well of Humira or CEA-PGLALA (3.42 mg/ml, ID 8037) respectively at 5 μg/mL in NaHCO3100 mM buffer overnight at +4° C. The next day the ELISA plates were washed 3 times with PBS+0.05% Tween. […] 100 μl of substrate P-nitrophenyl phosphate ready to use (Life Technologies Cat no 002212) were added per well and after 10 min incubation at room temperature, the OD at 405 nm was read as an end-point measurement with a Versamax ELISA reader.
# [2] = tested on: adalimumab-specific IgG response; experiment: ADA against adalimumab in hIgG1 Tg mice, ELISA (Example 1, 28 days); type: in vivo, C57BL/6-Tg (hIgG1,k,l) mice; conditions: 40 mg/kg/day via food admix from one day before first immunization until day 28, vs vehicle
# From the text: (§2) For immunogenicity assessment, we used the previously described human IgG1 immune-tolerant mouse model (Bessa, Boeckle et al. Pharm Res 2015, 32(7): 2344-2359). Since this human IgG transgenic mouse is tolerant to a broad range of human IgG1 antibodies (Abs), ADA responses elicited in this system are taken to reflect intrinsic immunogenic attributes of the eliciting Ab compounds also expected to cause ADA in humans.
# (§3) 15-week-old mice C57BL/6 wild type and C57BL/6-Tg (hIgG1,k,l) were purchased from Taconic (Denmark) and housed at the animal facilities under a 12 hour (h) light 12 h dark cycle with cycles of air ventilation and free access to water and food. 7×10 μg of CEA-112v or 7×10 μg of Humira (Adalimumab, Abbvie Germany GmbH) were injected respectively at day 0, 4, 7, 11, 14, 18 and 21 subcutaneously in the right flank or the left flank alternatively. The dosage of the cathepsin S inhibitor consumption was 40 mg/kg/day. […]
# as §1, with “C.” for “C. The next day the ELISA plates were washed 3 times with PBS+0.05% Tween.”
# [3] = tested on: CEA-specific IgG response; experiment: ADA against CEA-IL2v in hIgG1 Tg mice, ELISA (Example 1, 28 days); type: in vivo, C57BL/6-Tg (hIgG1,k,l) mice; conditions: 40 mg/kg/day via food admix from one week before first immunization until day 28, vs vehicle
# From the text: as §2, §3
# as §1, with “C.” for “C. The next day the ELISA plates were washed 3 times with PBS+0.05% Tween.”
# [4] = tested on: CEA-specific IgG response; experiment: ADA against CEA-IL2v in hIgG1 Tg mice over time, ELISA (Example 4, 63 days); type: in vivo, C57BL/6-Tg (hIgG1,k,l) mice; conditions: 40 mg/kg/day via food admix, primary and memory response, samples to day 63, vs vehicle
# Description: 15-week-old mice C57BL/6-Tg (hIgG1,k,l) and C57BL/6 wild type mixed gender were purchased from Taconic (Denmark) and housed at the animal facilities in room with air-conditioned under a 12 hours light/dark cycle in macrolon boxes with enriched environment and free access to water and food. 7×10 μg of CEA-IL2v (Batch no GLI0144-01) were injected at day 0, 4, 7, 11, 14, 18 and 21 for the primary response, and at day 49, 53, 56 and 60 for the memory response. The CEA-112v injections were done subcutaneously in the right flank or the left flank alternatively. The dosage of (2S,4R)-4-[4-(1-methyl-1H-pyrazol-4-yl)-2-trifluoromethyl-benzenesulfonyl]-1-(1-trifluoromethyl-cyclopropanecarbonyl)-pyrrolidine-2-carboxylic acid (1-cyano-cyclopropyl)-amide consumption was 40 mg/kg/day. […]
# as §1, with “CEA-PGLALA” for “CEA-PGLALA (3.42 mg/ml, ID 8037)”, “C.” for “C. The next day the ELISA plates were washed 3 times with PBS+0.05% Tween.”, “Technologies,” for “Technologies”
structure (smiles),measurement,setting,value
"Cn1cc(-c2ccc(S(=O)(=O)[C@@H]3C[C@@H](C(=O)NC4(C#N)CC4)N(C(=O)C4(C(F)(F)F)CC4)C3)c(C(F)(F)F)c2)cn1 [cathepsin S inhibitor, (2S,4R)-4-[4-(1-methyl-1H-pyrazol-4-yl)-2-trifluoromethyl-benzenesulfonyl]-1-(1-trifluoromethyl-cyclopropanecarbonyl)-pyrrolidine-2-carboxylic acid (1-cyano-cyclopropyl)-amide]",ADA to CEA-IL2v (CEA-specific IgG),[1],reduces its levels in wild-type mice; also recorded: only partial reduction of ADA
same,ADA to adalimumab (adalimumab-specific IgG),[2],reduces ADA to adalimumab; also recorded: reduced ADA levels compared to vehicle treated animals
same,ADA to CEA-IL2v (CEA-specific IgG),[3],prevents ADA to CEA-IL2v in hIgG transgenic mice; also recorded: complete abrogation of ADA to CEA-IL2v
same,ADA to CEA-IL2v (CEA-specific IgG) over time,[4],prevents ADA to CEA-IL2v in hIgG transgenic mice
